# Earlier results as cited in patent US8765470B2, “Reprogramming immortalized B-cells to induced pluripotent stem cells” (Cellular Dynamics International, Inc., priority 2010, dated 2014).
# Columns and labels:
# [1] = test system: EBV; conditions: Norseen et al., 2009
# [2] = test system: Epstein-Barr virus (EBV); conditions: anti-EBV activity; Kira et al., 2000; read-out: 50% effective concentration
# [3] = Kira et al., 2000
# [4] = test system: EBV replication; conditions: in vitro; Lin et al., 1983
Compound,effect on EBV proliferation [1],inhibition of EBV replication [4],further results
C[n+]1cccc(-c2c3nc(c(-c4ccc[n+](C)c4)c4ccc([nH]4)c(-c4ccc[n+](C)c4)c4nc(c(-c5ccc[n+](C)c5)c5ccc2[nH]5)C=C4)C=C3)c1 [TMPyP3],block EBV proliferation,–,–
O=c1[nH]c(=O)n([C@@H]2CO[C@H](CO)O2)cc1I [beta-L-5-Iododioxolane uracil],–,–,"EC50 [2]: 30 nM; 50% cytotoxic concentration [3]: 1,000 microM"
Cc1cn([C@@H]2O[C@H](CO)[C@@H](O)[C@@H]2F)c(=O)[nH]c1=O [1-(2-deoxy-2-fluoro-beta-D-arabinofuranosyl)-5-methyluracil],–,potent inhibitors,–
CN(C)c1ccc(Nc2c3ccc(NC(=O)CCN4CCCC4)cc3nc3cc(NC(=O)CCN4CCCC4)ccc23)cc1 [BRACO-19],block EBV proliferation,–,–
Nc1nc(=O)n([C@@H]2O[C@H](CO)[C@@H](O)[C@@H]2F)cc1I [1-(2-deoxy-2-fluoro-beta-D-arabinofuranosyl)-5-iodocytosine],–,potent inhibitors,–
C[n+]1ccc(-c2c3nc(c(-c4cc[n+](C)cc4)c4ccc([nH]4)c(-c4cc[n+](C)cc4)c4ccc([nH]4)c(-c4cc[n+](C)cc4)c4nc2C=C4)C=C3)cc1 [TMPyP4],block EBV proliferation,–,–
O=c1[nH]c(=O)n([C@H]2C[C@H](O)[C@@H](CO)O2)cc1/C=C/Br [E-5-(2-bromovinyl)-2′-deoxyuridine],–,potent inhibitors,–
